The test system of series [1] is L. monocytogenes pre-formed biofilms. Briefly: MBC-B against pre-formed biofilms (Example 2). Format: cell-based. As to conditions: pre-formed biofilm, ≥3 log reduction in viable cells. As to the method: (§1) The minimum biofilm bactericidal concentrations (MBC-Bs) of the cationic amphiphiles against pre-formed biofilms of L. monocytogenes and G. vaginalis were identified. The biofilms of the two targeted microorganisms were grown in 96-well plates according to established methodology for Gram-positive and Gram-variable bacteria (Tabak et al., FEMS microbiology letters. 2009; 301(1):69-76). To identify the reduction in the number of biofilm-associated viable cells treated with different concentrations of cationic amphiphiles, the spot plate method was used (Turovskiy et al., Infectious diseases in obstetrics and gynecology. 2012; 2012:284762, 9 pages). In brief, biofilms were washed, disrupted, diluted 10^1-10^8 times with fresh medium and the samples plated on suitable solid medium.

Series [2] relates to G. vaginalis pre-formed biofilms. Briefly: MBC-B against pre-formed biofilms (Example 2). The settings on record: pre-formed biofilm, ≥3 log reduction in viable cells. Format: cell-based. Here is the method: as §1
In series [3] the test system is G. vaginalis ATCC 14019. Briefly: MIC broth microdilution (Example 3). The series is classed as cell-based, Gardnerella vaginalis. The settings on record: planktonic, sBHI, anaerobic. As to the method: G. vaginalis ATCC 14019 strain was grown overnight in Brain Heart Infusion broth (Difco, Sparks, Md.) supplemented with 3% horse serum (sBHI) (JRH Biosciences, KS), while BHI supplemented with 1% glucose (BHIG) was used for biofilm formation assays. Each experiment using G. vaginalis was performed anaerobically (10% hydrogen, 5% carbon dioxide, and 85% nitrogen) within anaerobic glove boxes (Coy Laboratory Products, Inc., Grass Lake, Mich., USA). Three species of vaginal Lactobacillus were used in this study to evaluate the possible harmful effects of CAms on beneficial bacteria: Lactobacillus plantarum ATCC 39268, Lactobacillus rhamnosus 160 (provided by Dr. Aroutcheva, Rush University Medical Center) and Lactobacillus gasseri ATCC 33323; all were grown for 18-24 h in DeMan, Rogosa and Sharpe broth (MRS Difco B D, Franklin Lakes, N.J., USA) under aerobic conditions at 37° C. For lactobacilli biofilm formation, MRS broth supplemented with 1% glucose and 2% sucrose (Fisher Scientific, Waltham, Mass., USA) was utilized.
To prepare a stock solution, the CAm compounds were dissolved in ddH2O and incubated at 37° C. with shaking at 250 rpm for 10 min. Then, the solution was serially diluted twofold with sBHI broth to determine the MIC and with BHIG broth to identify the MIC-B/MBC-B against planktonic and biofilm cells, respectively.
According to Clinical and Laboratory Standards Institute (CLSI 2010), the MIC is defined as the lowest concentration of antimicrobial compound producing no visible growth or complete inhibition of bacterial growth during 24 h. To determine MIC values, the broth microdilution assay was performed according to Algburi et al. (Algburi et al., 2015. Path Dis 73(5)) with minor modifications. Briefly, the overnight-grown cells were diluted with their suitable culture medium to approach ˜10^6 CFU/ml. The number of bacterial cells was identified using spot plate method (Turovskiy et al., 2012. Infect Dis Obstet Gynecol 2012:284762). […]

Series [4] concerns Human foreskin fibroblast (HFF) cells. Format: cell-based. The settings on record: for IC50: Table 2 of Example 1, cytotoxicity IC50 of CAms. Here is the method:
HFFs were cultured in DMEM supplemented with 10% fetal bovine serum, 1% penicillin/streptomycin and plated at a concentration of 10,000 cells/well in 96-well plate. Plates were incubated at 37° C. and 5% CO2 for 24 h to allow cell attachment prior to use.
CAMs were tested for cytotoxicity against HFFs using a tetrazolium-based colorimetric assay (MTT). CAMs were first dissolved in ddH2O and then diluted in cell medium (DMEM supplemented with 1% penicillin/streptomycin) to reach concentrations of 15.6, 3.9, and 0.95 μg/mL. 100 μL cell media containing CAMs were then added to allocated wells in a 96-well plate. Cells treated with only 1% Triton X-100 and cell medium were used as positive and negative controls, respectively. After 24 h incubation, the medium was removed and replaced with fresh medium. 20 μL of MTT reagent (12 mM in PBS) was then added to each well and further incubated for 4 h at 37° C. Formazan crystals were subsequently dissolved in 100 μL acidified SDS solution at 37° C. for 4 h. […] The following is used to calculate the percent of cell viability of HFFs: […]

For series [5], the system named is S. aureus. Nature of the series: SEM and TEM of treated bacteria. Format: cell-based, Staphylococcus aureus. As to conditions: at MIC, 1 h. Here is the method: (§2) Bacteria were grown to the mid-exponential growth phase. Silicon wafers were submerged in the bacterial solutions in the presence or absence of CAMs at their respective MICs and incubated for 1 h. 0.25% glucose was added to facilitate attachment. The bacteria on wafers were fixed in 2.5% glutaraldehyde for 1 h at room temperature, washed three times with PBS, and postfixed 1% osmium tetroxide. The samples were then dehydrated in a graded series of ethanol solutions (50%, 70%, 80%, 95%, 100%), dried with graded hexamethyldisilazane (50%, 100%), and left to air dry for two days. After drying, the wafers were mounted on stub and sputter-coated with 20 nm gold prior to inspection under microscope (Zeiss Sigma Field Emission SEM, Carl Zeiss, Ontario, Calif.) at 5 kV.
(§3) Bacteria were grown as described above for SEM sample preparation. In brief, bacteria were incubated in the presence or absence of CAMs at their respective MICs for 1 h. After centrifugation at 500×g for 10 min, the resulting pellet was fixed in 2.5% glutaraldehyde, washed three times with PBS, and postfixed with 1% osmium tetroxide. The samples were then dehydrated with graded ethanol series (50%, 70%, 80%, 95%, 100%) and embedded in epoxy resin (Dr. Spurr's kit, Electron Microscopy Sciences, Hatfield, Pa.). Ultrathin sections of the cells were stained with 1% uranyl acetate. […]

In series [6] the test system is G. vaginalis pre-formed biofilms. Nature of the series: Biofilm removal (FIG. 5). The series is classed as cell-based. The settings on record: 250 μg/mL against pre-formed biofilms.
Series [7] has as its system E. coli. Nature of the series: SEM and TEM of treated bacteria. Format: cell-based, Escherichia coli. As to conditions: at MIC, 1 h. As to the method:
as §2, §3

Each structure is given as a SMILES string.

A word on the IC50: it is the midpoint of a concentration-inhibition curve. With `CCCCCCCCCC(=O)OC(C(=O)NCCN)C(OC(=O)CCCCCCCCC)C(=O)NCCN.Cl.Cl` (stereo not drawn) [8b], the “MBC-B, L. monocytogenes” value in series [1] is “approximately 250 μg/mL”. For the same molecule, the “MBC-B G. vaginalis” value in series [2] is “approximately 31.25 μg/mL”. In series [3], the “MIC G. vaginalis” value was found to be 2.3 µM. In addition, in series [4], the “cytotoxicity to human fibroblasts (MTT cell viability)” value is given as “did not produce pronounced cytotoxicity” and the IC50 came to 13.9 µg/mL.

Regarding `CCCCCCCC(=O)OC(C(=O)NCCN)C(OC(=O)CCCCCCC)C(=O)NCCN.Cl.Cl` (stereo not drawn) [8a], the “MIC G. vaginalis” value in series [3] turned out to be 24.4 µM. The same molecule displayed an IC50 in series [4] of 55.6 µg/mL.

For `CCCCCCCCCCOC(C(=O)NCCN)C(OCCCCCCCCCC)C(=O)NCCN.Cl.Cl` (stereo not drawn) [5b], in series [5], the “ultrastructural changes (TEM)” value is given as “profound internal damage”. Further, the “removal of biofilm structures” value in series [6] was “up to 70%”. For the same molecule, the “MBC-B, L. monocytogenes” value in series [1] is “approximately 250 μg/mL”. In addition, the “MBC-B G. vaginalis” value in series [2] is “approximately 31.25 μg/mL”. Further, the “ultrastructural changes (TEM)” value in series [7] was “extensive ultrastructural damage”. In series [3], the “MIC G. vaginalis” value was 1.1 µM. Further, in series [4], the “cytotoxicity to human fibroblasts (MTT cell viability)” value is given as “did not produce pronounced cytotoxicity” and the IC50 was determined as 5.6 µg/mL.

The values are drawn from patent US10759740B2, “Antibacterial agents” (Rutgers, The State University of New Jersey, priority 2016, dated 2020).
